Assay results taken from patent US9078907B2, “Immunoregulator compounds” (Universita Degli Studi Di Roma “Tor Vergata”, priority 2001, dated 2015).

What was measured:
[1] = tested on: macrophage PLD; assay type: cell-based, human
[2] = tested on: MTB-FITC infected macrophages; assay: Phagolysosome maturation by flow cytometry of FITC-labelled MTB infected macrophages; assay type: cell-based, human; details: MTB-FITC MOI 1 for 3 hours, 5 μM S1P for 30 minutes; S1P non-treated 63.4%
Experimental: In some experiments MTB aliquots, after thawing at room temperature, centrifuged at 10000 rpm for 10 minutes, suspended in PBS and sonicated for 1-2 minutes, were labelled with fluorescein isothiocyanate (FITC) (Sigma). FITC, pre-suspended at 1 μg/ml concentration, was added to the bacterial suspension, which was incubated at 37° C. in the presence of 5% CO2 for about 90 minutes. At the end of the incubation the bacterial suspension was washed three times with centrifugation at 14000 rpm for 15 minutes and suspended in PBS at required concentration.
By virtue of extreme sensitivity of fluorescein isothiocyanate (FITC) to acid pHs this molecule was used to monitor the phagosome acidity and have therefore information about maturation stage of phagolysosome. To this aim, bacteria were labelled with fluorescein isothiocyanate (FITC) as above described. Infection was carried out using FITC labelled bacteria. Then, cells were washed after 3 hours and stimulated for 30 minutes with 5 μM sphingosine 1-phosphate and following 1.5% paraformaldehyde (PFA) fixated and finally monitored by flow cytofluorometry.
In order to evaluate the effect of S1P on a specific antimicrobial activity as the maturation of phagolysosome, the infection with FITC-labelled MTB was carried out and the fluorescence values of FITC-MTB were used as indicators of the phagolysosome maturation. […]

[3] = tested on: Cathepsin D; assay: Western blot of Cathepsin D in macrophage phagosomal fractions after latex beads internalisation; assay type: cell-based, human; details: 5 μM S1P, 24 hours after latex beads internalisation
Experimental: In order to analyse the expression of an intralysosomal protein within beads containing phagolysosomes the macrophage phagosomal fraction was separated. Particularly, cells were incubated with sterile latex beads ([…]) (Sigma), 1: 200 diluted, in culture medium for 1 hour in the presence of 5% CO2 and then treated with 5 μM S1P.
Separation of the phagosomes was carried out by centrifugation on sucrose gradient. Cells were washed three times with PBS (twice for 10 minutes) and then again incubated for 24 hours at 37°C. Following the internalisation and 24 hour incubation period cells were washed with cold PBS and collected using a little scraper in PBS at 4° C., then centrifuged at 2000 rpm for 10 minutes at 4° C. and finally washed with homogenising buffer (250 mM sucrose, 3 mM imidazole, pH 7.4) again at 4° C. Cellular pellet was suspended in 1 ml homogenising buffer and cells were lysed with an homogenizer. Phagosomes were isolated by centrifugation on sucrose gradient. Cells, suspended in 1 ml of PBS, were added to 1 ml of 40% sucrose solution and such a suspension was stratified on 2 ml of 62% sucrose solution in ultracentrifuge tubes. Then 2 ml of 35%, 25% and 10% sucrose solutions were stratified (all the solutions were prepared in 3 mM imidazole, pH 7.4). The tubes were ultra-centrifuged using SW41 rotor at 100000 g at 4° C. […]

[4] = tested on: Mycobacterium tuberculosis; assay: Colony forming units of H37Rv M. tuberculosis in differentiated THP-1 cells; assay type: cell-based; details: THP-1 macrophage cell line, MOI 1:10 or 1:1, 5 μM, up to 5 or 7 days
Experimental: Human monocytic THP-1 leukemia line cells were used in this example as a model for macrophage response. In order to obtain macrophage phenotype, 5×10^5/ml THP-1 cells were induced to differentiate by 48 hours incubation in the presence of 20 ng/ml Phorbol Myristate Acetate (PMA). Differentiated THP-1 cells (dTHP-1) were then centrifuged three times and suspended in complete medium [RPMI 1640 (Gibco BRL) supplemented with 10% fetal bovine serum, 5 mM L-glutamine) (Invitrogen), 1 mM sodium pyruvate (Gibco BRL) and non-essential amino acids (Euroclone), 5 μg/ml gentamicin (Invitrogen)]. dTHP-1 were then infected for 3 hours with H37Rv M. tuberculosis at the multiplicity of infection of 1:10 (FIG. 8A) or 1:1 (FIG. 8B) bacterium/cell. After infection cells were washed three times with RPMI 1640 and incubated in complete medium for further 1, 2 and 5 days (FIG. 8A) or 1 and 7 days (FIG. 8B) in the presence or absence of sphingosine 1-phosphate used at the concentration of 5 μM. […]

CCCCCCCCCCCCC/C=C/[C@@H](O)[C@@H](N)COP(=O)(O)O [S1P, D-erythro-sphingosine 1-phosphate]
Pet-OH production, index of PLD activity, versus MTB infected non S1P treated macrophages [1]: higher | S1P concentration giving maximum activation of macrophage PLD [1]: 5 µM | time of maximum activation of macrophage PLD [1]: 30 min | % of fluorescent macrophages (FITC-MTB fluorescence) [2]: 38.9% | amount of intralysosomal protein (Cathepsin D) in the phagosomal fraction versus non-treated macrophages [3]: higher | intracellular replication of Mycobacterium tuberculosis (CFU) [4]: inhibits
